As a reminder, the half-life is the time in which the quantity being followed falls by half. A lower half-life goes with fast loss. In general, bioavailability refers to the share of a dose that reaches the circulation, judged against a reference dose that is usually intravenous. The Cmax is the maximum level reached in the sampled fluid or tissue. The EC50 is the concentration at which the effect is half-maximal. A higher EC50 goes with lower potency in that assay.

This is an account of results in paper PMC6105845, “Nucleotide Prodrug Containing a Nonproteinogenic Amino Acid To Improve Oral Delivery of a Hepatitis C Virus Treatment” (Antimicrobial Agents and Chemotherapy, 2018).

The nature of data set [1]: Metabolic stability in intestinal S9 fraction, rat. Type of data set: in vitro ADME. The protocol: (§1) Blood plasma and S9 stability was studied as described previously ([8]). In brief, the compounds were incubated at 2 μM in hamster, rat, dog, monkey, or human plasma samples for up to 4 h at 37°C. For S9 stability, the compounds were incubated at 2 μM in hamster, rat, dog, monkey, or human intestinal and hepatic S9 fractions for up to 90 min at 37°C in the presence of NADPH and uridine 5′-diphosphoglucuronic acid trisodium salt (UDPGA) (Sigma-Adrich). The samples were analyzed by liquid chromatography coupled to triple-quadrupole mass spectrometry (LC-MS/MS).
(§2) The data (analyte-to-internal standard peak area ratio) were plotted on a semilog scale and fitted using an exponential fit. The half-life (t1/2) was determined assuming first-order kinetics.

A short description of data set [2]: Plasma pharmacokinetics in pentagastrin-pretreated portal vein-cannulated dogs. It counts as in vivo, male beagle dogs. To be noted: for bioavailability / AUC(0-t) / Cmax: male, beagle; for bioavailability / Fa (fraction absorbed): oral 5 mg/kg vs 0.5 mg/kg intravenous infusion; for bioavailability: read-out: F (oral bioavailability). Here is the method:
Plasma and liver pharmacokinetic studies were completed as described previously ([8]). Briefly, intact Golden Syrian hamsters, Sprague-Dawley rats, and beagle dogs (intact and portal vein cannulated) were orally administered a single dose of GS2 or GS2(R+S) in solution formulations at between 5 and 50 mg/kg of body weight. Similarly, studies were completed by administering GS-6620 or its 1:1 diastereomeric mixture in solution or micronized suspension formulations at between 5 and 21.1 mg/kg. Animal doses were chosen to correspond to surface area-adjusted human doses targeted for clinical development (150 to 500 mg). In order to understand hepatic extraction (EH), fraction absorbed (Fa), and oral bioavailability (F), intravenous (i.v.) and oral (p.o.) studies were conducted with GS2 and GS-6620 in intact and portal vein-cannulated dogs. Intravenous dosing used solution formulations at 0.5 mg/kg of the respective prodrugs. Animals were housed and handled in accordance with the Guide for the Care and Use of Laboratory Animals ([23]). The protocols were reviewed and approved by the Institutional Animal Care and Use Committees (IACUC).
Plasma samples were prepared through protein precipitation extraction by adding acetonitrile to a final concentration of 70% containing internal standard (5-iodotubericidin). Samples were dried completely under a stream of nitrogen at 40°C and reconstituted with 0.2% formic acid in water to 3 times the original volume of plasma for LC-MS/MS analysis. Liver samples were prepared by sectioning into smaller pieces and collecting into preweighed 15-ml conical tubes kept on dry ice. Ice-cold extraction buffer (0.1% KOH and 67 mM EDTA in 70% methanol containing chloro-ATP as an internal standard) was added to ∼0.5 g of each liver sample. The mixtures were promptly homogenized using an Omni-Tip TH with disposable, hard tissue homogenizer probes (Omni International). Aliquots of the homogenate were filtered by using 0.2-μm 96-well polypropylene filter plates (Varian Captiva). The filtrates were evaporated to dryness and reconstituted with an equal volume of 1 mM ammonium phosphate buffer (pH 7) prior to LC-MS/MS analysis. Plasma and liver samples were analyzed on a Sciex API-4000 (Applied Biosystems, Foster City, CA) LC-MS/MS instrument. Analytes in plasma samples were separated on a 4-μm, 150- by 2-mm Synergi Max-RP column (Phenomenex, Torrance, CA) using a mobile phase containing 0.2% formic acid and a linear gradient from 2% to 100% acetonitrile at a flow rate of 250 μl/min over 7 min. Analytes in liver samples were separated using a 50- by 2-mm by 2.5-μm Luna C18(2) HST column (Phenomenex, Torrance, CA). A multistage linear gradient from 10% (mobile phase A) to 50% acetonitrile (mobile phase B) in a mobile phase containing 3 mM ammonium formate (pH 5.0) with 10 mM dimethylhexylamine at a flow rate of 0.15 ml/min was used to elute the analytes.
Noncompartmental pharmacokinetic parameters were calculated using WinNonlin 5.01 (Pharsight Corporation, Mountain View, CA). Equations for calculating hepatic extraction (EH; equation 2), fraction absorbed (Fa; equation 3), and oral bioavailability (F; equation 4) have been presented previously ([25]). (2) EH=AUCPO,portal vein−AUCPO,jugular vein/AUCPO,portal vein (3) Fa=F/1−EH (4) F=AUCPO,jugular vein÷DosePO/AUCIV÷DoseIV

In the next data set the test system is HCV GT2a replicon. In words: HCV GT2a replicon, stably transfected Huh-Lunet cells. It counts as cell-based, hepatitis C virus. The settings on record: for EC50: Hepatitis C virus, 72 h, stably transfected Huh-Lunet cells, 3 days. The protocol: Primary hepatocytes from humans, hamsters, dogs, and monkeys were purchased from BioreclamationIVT in 12-well plates seeded at confluence (0.88 × 10^6 cells/well). Huh-Lunet cells were obtained from ReBlikon GmbH (Mainz, Germany) ([19]). Huh-1C was derived from a GT1a replicon clone in which HCV replication was cured. All Huh-Lunet- and Huh-1C-based replicon cell lines were cultured in Dulbecco's modified Eagles' medium (DMEM) with GlutaMAX (Invitrogen, Carlsbad, CA) supplemented with 10% fetal bovine serum (FBS; HyClone, Logan, UT) and 100 U/ml penicillin (Invitrogen). Replicon cell lines containing genotype 1a (H77) and 2a (JFH1) were created as previously reported ([20][–][22]). Caco-2 cells were maintained in DMEM with sodium pyruvate, GlutaMAX supplemented with 1% penicillin-streptomycin, 1% nonessential amino acids, and 10% FBS in an incubator set at 37°C, 90% humidity, and 5% CO2.
GT1a, GT1b, and GT2a are authentic subgenomic replicons of the indicated strain. Creation of these HCV replicons was reported previously ([7]).
The EC50s, defined as the concentration at which there was a measured 50% decrease in HCV replicon level, were determined in replicon assay as previously described ([24]). Briefly, replicon cells were seeded into 96-well plates. Compounds were serially diluted in DMSO at 200× final concentrations and then added to the assay plate. Luciferase expression was quantified after 3 days of incubation using a commercial luciferase assay (Promega, Madison, WI). Data were analyzed using GraphPad Prism 6.0 (La Jolla, CA).
X represents log of compound concentration and Y represents replicon replication as the percentage of DMSO control. EC50s were calculated as an average from at least three independent experiments.
On the technique in general: A replicon is a self-replicating genome or part of one, used to study replication in cells.

The nature of data set [3]: Metabolic stability in intestinal S9 fraction, human. Type of data set: in vitro ADME. The settings on record: for half-life at 2 μM: intestinal S9 fraction. The protocol: as §1, §2
[4] abbreviates: dog, plasma (jugular vein), oral 5 mg/kg, GS2 in solution, GS-6620 in suspension of micronized material, read-out: AUC0–t jugular.
[5] abbreviates: dog, plasma (jugular vein), oral 5 mg/kg, GS2 in solution, GS-6620 in suspension of micronized material, read-out: Cmax jugular.
The mark [6] stands for this setting: dog, plasma (portal vein), oral 5 mg/kg, GS2 in solution, GS-6620 in suspension of micronized material, read-out: AUC0–t portal.
The mark [7] stands for this setting: dog, plasma (portal vein), oral 5 mg/kg, GS2 in solution, GS-6620 in suspension of micronized material, read-out: Cmax portal.
The mark [8] stands for this setting: dog, plasma, 0.5-mg/kg intravenous infusion (30 min), n = 3, read-out: AUC0–t following intravenous infusion.

Several values for one entry are separate records, joined by “and”; a condition that tells them apart may be missing. Equal entries are not always repeated. Where two headings read alike, the source gives them in different places.

On to `CC(C)OC(=O)C(C)(C)N[P@](=O)(OC[C@H]1O[C@@](C#N)(c2ccc3c(N)ncnn23)[C@](C)(O)[C@@H]1O)Oc1ccccc1` [GS2], for which the half-life at 2 μM in data set [1] came to 2.83 h; in data set [3], 9.5 h. In data set [2] (dog, in vivo), the “Fa in dog higher than corresponding L-alanine-containing prodrug” value is “more than 5 fold”. Besides, the bioavailability in data set [2] (dog, plasma (jugular vein)) turned out to be 13%. For the same compound, the figures for the AUC(0-t) in data set [2] (setting [4]), in data set [2] (setting [6]) and in data set [2] (setting [8]) were 0.44 ± 0.09 µM·h, 1.77 ± 0.26 µM·h and 0.34 µM·h, respectively. Also, the Cmax in data set [2] (setting [5]) turned out to be 430 ± 90 nM; in data set [2] (setting [7]), 1610 ± 350 nM. In addition, the “EH (hepatic extraction)” value in data set [2] (oral 5 mg/kg) is on record as 75%. The “maximal portal concentration lower than GS-6620” value in data set [2] (oral 5 mg/kg) is reported as “approximately 2 fold”. In data set [2], the “Fa (fraction absorbed)” value is 51.6% and 52%. In the data set with HCV GT2a replicon (EC50 ratio, GT2a, Huh-Lunet), the “Fold (GS2/GS-6620)” value worked out at 50. This compound also yielded a 50% effective concentration (EC50) in the data set on HCV GT2a replicon (GT2a) of 25 µM. In addition, in data set [3], the “stability in human intestinal S9 greater than GS-6620” value is on record as 35 fold.
As to `CC(C)OC(=O)[C@H](C)N[P@](=O)(OC[C@H]1O[C@@](C#N)(c2ccc3c(N)ncnn23)[C@](C)(O)[C@@H]1OC(=O)C(C)C)Oc1ccccc1` [GS-6620, reference compound], the figures for the half-life at 2 μM in data set [1] and in data set [3] were 0.147 h and 0.283 h, respectively. The bioavailability in data set [2] (dog, plasma (jugular vein)) came to 15%. Besides, the AUC(0-t) in data set [2] (setting [4]) stood at 0.33 ± 0.28 µM·h; in data set [2] (setting [6]), 1.68 ± 0.8 µM·h; in data set [2] (setting [8]), 0.2 µM·h. Also, the Cmax came out at 620 ± 430 nM in data set [2] (setting [5]) and 3650 ± 860 nM in data set [2] (setting [7]). Besides, the “EH (hepatic extraction)” value in data set [2] (oral 5 mg/kg) stood at 80%. Further, the “Fa (fraction absorbed)” value in data set [2] worked out at 79%. For the same compound, the “time by which plasma concentration decreased to undetectable” value in data set [2] (oral 5 mg/kg, postdose) is given as no more than 2 h. Besides, in the data set on HCV GT2a replicon (GT2a), it took 0.5 ± 0.16 µM to reach a half-maximal effect (EC50). Besides, in the data set on HCV GT2a replicon (Huh-Lunet vs Huh-1C 2a replicons), the “difference in activity across the 2a replicons” value is no more than 19 fold.
